Format in all cases: biochemical, human
Assay [1] deals with PCT. Kind of assay: Complementary activity of small subunits mutated at conserved positions, Furimazine substrate (Example 6). The settings on record: MBP-PCT 3.3 ng/ml, supernatant; for activity (luminescence signal value), 3 min: 3 min after Furimazine 25 µM; for activity (luminescence signal value), 6 min: 6 min after Furimazine 25 µM. How it is done: Detection Methods: • (1) The concentration of large subunit-rSCFV5 fusion protein was diluted to 12.5 nM, and 15 µl was added per well; • (2) MBP-PCT fusion protein was diluted to 3.3 ng/ml with PBSAD, and 10 µl was added per well; • (3) HB2151 strain containing plasmids with different small subunit sequences were induced by IPTG at 30°C overnight, then treated with polymyxin B for 1.5h, and centrifuged to collect the supernatant, and 2.5µl supernatant was added per well; • (4) The above three components were slightly mixed, incubated at 37°C for 7 min, and Obuffer 6.37-3 containing Furimazine at a concentration of 25 µM was added, […], the luminescence signal value was detected using a bioluminescence detector; and • (5) Clones with RLU higher than 10,000 were picked. The substrate was replaced with CTZ-h substrate for retesting (Obuffer 6.37-3 containing CTZ-h at a concentration of 25 µM was added, and after 60 s, the luminescence signal value was detected using a bioluminescence detector), and a PBSAD control was added to test the signal-to-noise ratio.
In order to further determine whether these three conserved amino acid sequences were changed, this example constructed a random mutation library of these three positions, with a theoretical diversity of 8,000 and a library capacity of 10^6, and 2,000 single clones were picked. The method of protein induction and expression was the same as that in Example 1. The complementary activity was tested in the same manner as that in Example 4, but the signal-to-noise ratio was not retested with CTZ-h. Clones with different activity were randomly picked for sequencing.

Assay [2] concerns PCT. The assay is described as follows: Signal-to-noise ratio and linear range for PCT detection, purified fusion proteins (Example 3). More on the design: key to luminescence value: luminescence normalized against the background value. The settings on record: for Signal-to-noise ratio at 1000 pg/ml: large subunit 100 nM, small subunit fusion 180 nM, CTZ-h 25 µM, 140 s; for signal-to-noise ratios in luciferase dual-antibody complementary activation for PCT detection: statement in words on Table 3 and Figure 2. The method, then: Test Methods: • (1) MBP-PCT protein was diluted with PBSAD in 10-fold gradient starting from 100 ng/ml, with 8 gradients in total, and 10 µl was added per well; • (2) The large subunit-SCFV5 fusion protein was diluted with PBSA to 100 nM, and 10 µl was added per well; • (3) Different rSCFV18-small subunit mutant fusion proteins were diluted with PBSA to 180 nM, and 10 µl of each was added per well; • (4) The plate was mixed slightly and incubated at 37°C for 10 min; and • (5) 50 µl of Obuffer 6.37-3 containing 25 µM of CTZ-h was added, and after 140 s, the luminescence value was detected. The results are shown after normalization against the background value.

Assay [3] relates to PCT. The assay is described as follows: Luciferase dual-antibody complementary activation assay for PCT detection, clone supernatants, retest with CTZ-h (Example 1). The settings on record: for Signal-to-noise ratio: RLU antigen+/RLU antigen-, MBP-PCT 3.3 ng/ml, CTZ-h; for PCT+: luminescence signal value with MBP-PCT 3.3 ng/ml, large subunit-rSCFV5 50 nM, supernatant; for PCT+ / PCT-: retest CTZ-h 25 µM, read after 60 s; for PCT-: luminescence signal value, background control PBSAD without PCT. The method, then: In order to improve the signal-to-noise ratio and complementary activity of the luciferase dual-antibody complementary activation assay, a series of complementary luciferase small subunits were prepared in this example. Large subunit-rSCFV5 fusion protein (SEQ ID NO: 87) was kept unchanged, and the small subunit sequence of the rSCFV18-small subunit P114 fusion protein (SEQ ID NO: 88) was modified by semi-randomization to prepare rSCFV18-small subunit mutant fusion proteins. Based on the sequence of small subunit P114, and with reference to the 3D structure of complementary luciferase, computer-aided sequence design was employed to generate a library with a theoretical diversity of 2.49*10^6. Primers were designed for PCR amplification using the plasmid pComb3x of rSCFV18-small subunit P114 fusion protein as a template. Subsequently, an expression vector library was constructed by means of restriction digestion and ligation (SfiI, NheI), and a semi-random amino acid mutation library was introduced into the small subunit position and transformed into HB2151 competent cells, yielding a library capacity of 7.6*10^9. The 100 plates were spread, and 9,500 single clones were picked and inoculated into 600 µL of 2YTA medium, followed by incubation at 37°C with shaking at 250 rpm for 2 h. When the bacterial density reached approximately OD600 = 0.6~1.0, IPTG was then added to a final concentration of 1 mM, and the culture was further incubated at 30°C with shaking at 250 rpm for 20 h. The next day, the bacteria were collected by centrifugation at 4°C, 4,500g for 10min. The supernatant was discarded, and the precipitate was resuspended with 200µl of PBS containing polymyxin B at a final concentration of 20,000 u/ml. The suspension was incubated at room temperature with shaking at 100rpm for 1h, and then centrifuged at 4500g for 10min, and the supernatant was used for the test.
Test Methods: • (1) The concentration of large subunit-rSCFV5 fusion protein was diluted to 50 nM, and 15 µl was added per well; • (2) MBP-PCT fusion protein was diluted to 3.3 ng/ml with PBSAD, and 15 µl was added per well. The background control was PBSAD, and 10 µl was added per well; • (3) HB2151 strain containing expression plasmids with different small subunit were induced by 1 mM of IPTG at 30°C overnight, then treated with polymyxin B for 1.5 h, and centrifuged to collect the supernatant, and 2.5 µl supernatant was added per well; • (4) The above three components were slightly mixed, incubated at 37°C for 7 min, and Obuffer 6.37-3 containing Furimazine at a concentration of 25 µM was added, and after 80 s, the luminescence signal value was detected using a bioluminescence detector; and • (5) Clones with RLU higher than 10,000 and a signal-to-noise ratio (RLU antigen+/RLU antigen-) higher than that of the rSCFV18-small subunit P114 fusion protein were selected for retesting. The substrate was replaced with CTZ-h for retesting. Obuffer 6.37-3 containing CTZ-h at a concentration of 25 µM was added, and after 60 s, the luminescence signal value was detected using a bioluminescence detector.

For assay [4], the system named is PCT. Kind of assay: Signal-to-noise ratio and linear range for PCT detection, purified fusion proteins (Example 3). More on the design: key: luminescence normalized against the background value. The settings on record: PCT 3.3 (pg/ml); normalized against the background value.
The mark [5] stands for this setting: PCT 100 (pg/ml), normalized against the background value.
Setting [6] is: PCT 1000 (pg/ml), normalized against the background value.
Setting [7] is: PCT 10000 (pg/ml), normalized against the background value.
[8] abbreviates: PCT 100000 (pg/ml), normalized against the background value.

Take AEPYRIFDRKS [RD-099]: in the assay on PCT [1], the “activity (luminescence signal value), 3 min” value (shortened to “activity … 3 min”) is 221 and the “activity (luminescence signal value), 6 min” value (“activity … 6 min” below) was 52.

Take IEGYRLFDRKS [RD-092]: in the assay with PCT [1], the “activity … 3 min” value is reported as 4905 and the “activity … 6 min” value is reported as 4539.

Regarding VEGYHLFDRKS [RD-103], in the assay on PCT [1], the “activity … 3 min” value is 211 and the “activity … 6 min” value stood at 204.

As for AEGYRLFDRKS [RD-012], in the assay on PCT [1], the “activity … 3 min” value stood at 3586 and the “activity … 6 min” value is 2963.

Take VDGWRLHEKIS [RA141]: the luminescence value in the assay with PCT [2] (PCT 0, background, normalized) is reported as 5000; in the assay with PCT [2] (setting [5]), 8685; with PCT [2] (setting [6]), 42762; in the assay on PCT [2] (setting [7]), 333241; with PCT [2] (setting [8]), 1399433; with PCT [4], 5414. Further, the “Signal-to-noise ratio at 1000 pg/ml” value in the assay on PCT [2] is 8.6. The “signal-to-noise ratios in luciferase dual-antibody complementary activation for PCT detection” value (from here on “signal-to-noise ratios”) in the assay with PCT [2] is “higher signal-to-noise ratios”. Also, the Signal-to-noise ratio in the assay with PCT [3] is 65.1. Moreover, the “PCT+” value with PCT [3] was 30623. Besides, the PCT- in the assay on PCT [3] was found to be 463.

For AESYKLFDRKS [RD-100], in the assay with PCT [1], the “activity … 3 min” value is reported as 44 and the “activity … 6 min” value was determined as 214.

For the sequence VEGYRLFNKEW [RB284], the luminescence value in the assay with PCT [2] (PCT 0, background, normalized) was 5000; in the assay on PCT [2] (setting [5]) it was 7039; in the assay on PCT [2] (setting [6]), 24677; in the assay on PCT [2] (setting [7]), 187742; in the assay with PCT [2] (setting [8]), 861878; with PCT [4] it was 5288. The “Signal-to-noise ratio at 1000 pg/ml” value in the assay with PCT [2] is 4.9. Further, the “signal-to-noise ratios” value with PCT [2] is recorded as “higher signal-to-noise ratios”. The Signal-to-noise ratio in the assay on PCT [3] is 12.2. The “PCT+” value in the assay on PCT [3] came to 3993. The PCT- in the assay with PCT [3] is on record as 302.

With VEGYRLFERKW [RB276], in the assay on PCT [3], the Signal-to-noise ratio is 35, the “PCT+” value is listed as 44654 and the PCT- is 1242.

For VEGYRLFEKVW [RB172], in the assay with PCT [3], the Signal-to-noise ratio was 36.9, the “PCT+” value is on record as 41446 and the PCT- came to 1094.

VEGYRLFNRVS [RB027]: in the assay on PCT [3], the Signal-to-noise ratio is 22.6, the “PCT+” value worked out at 101765 and the PCT- stood at 4316.

AEGYRLFDRKS [RD-086]: in the assay with PCT [1], the “activity … 3 min” value is recorded as 3394 and the “activity … 6 min” value came out at 3222.

For the sequence VEPYKLFDRKS [RD-104], in the assay with PCT [1], the “activity … 3 min” value is reported as 215 and the “activity … 6 min” value was found to be 222.

In the case of VEGYRLFERIW [RB240], in the assay on PCT [3], the Signal-to-noise ratio is 35.3, the “PCT+” value is 50183 and the PCT- was 1384.

As to AEGYHLFRSKS [RD-108], in the assay with PCT [1], the “activity … 3 min” value came to 50 and the “activity … 6 min” value is on record as 53.

As to VEGYRLFERKS [RB033], in the assay on PCT [3], the Signal-to-noise ratio turned out to be 25.7, the “PCT+” value turned out to be 109352 and the PCT- was 4101.

With VEGYRLFNKKS [RB054], in the assay with PCT [3], the Signal-to-noise ratio was determined as 25.7, the “PCT+” value worked out at 92160 and the PCT- worked out at 3449.

As for VEGYRLFNRKS [RB075], in the assay with PCT [3], the Signal-to-noise ratio came to 27.1, the “PCT+” value worked out at 76733 and the PCT- was found to be 2735.

Consider VEGYRLHEKIS [RA128], for which, in the assay on PCT [3], the Signal-to-noise ratio is on record as 45.2, the “PCT+” value amounted to 17891 and the PCT- is on record as 387.

In the case of VEGYRLFERKL [RB157], in the assay on PCT [3], the Signal-to-noise ratio was 25.2, the “PCT+” value is 74319 and the PCT- amounted to 2837.

As to IEGYRLFDRKS [RD-084], in the assay on PCT [1], the “activity … 3 min” value came out at 2497 and the “activity … 6 min” value came to 2394.

VEPYKLFDRKS [RD-098]: in the assay on PCT [1], the “activity … 3 min” value is recorded as 214 and the “activity … 6 min” value turned out to be 49.

On to VSGWRIHEKIS [RA120], for which the luminescence value with PCT [2] (PCT 0, background, normalized) worked out at 5000; in the assay on PCT [2] (setting [5]) it was 13450; with PCT [2] (setting [6]) it was 90072; in the assay on PCT [2] (setting [7]), 694625; in the assay with PCT [2] (setting [8]) it was 1999707; in the assay on PCT [4], 5257. Also, the “Signal-to-noise ratio at 1000 pg/ml” value in the assay on PCT [2] is 18.0. For the same sequence, the “signal-to-noise ratios” value in the assay on PCT [2] was “higher signal-to-noise ratios”. Moreover, the Signal-to-noise ratio in the assay with PCT [3] came to 36.9. The “PCT+” value in the assay on PCT [3] turned out to be 81063. In the assay on PCT [3], this sequence yielded a PCT- of 2139.

Take VEGYRLFEKKL [RB149]: in the assay with PCT [3], the Signal-to-noise ratio was 21, the “PCT+” value turned out to be 79060 and the PCT- is 3587.

Take VEGYRLFDRVW [RB128]: in the assay with PCT [3], the Signal-to-noise ratio turned out to be 38.8, the “PCT+” value is 26168 and the PCT- came to 658.

In the case of VEGYRLFNRVG [RB122], in the assay on PCT [3], the Signal-to-noise ratio is reported as 20.2, the “PCT+” value was 55355 and the PCT- turned out to be 2605.

Consider VEGYRLFDRKL [RB212], for which, in the assay on PCT [3], the Signal-to-noise ratio was 33.6, the “PCT+” value is on record as 33103 and the PCT- worked out at 957.

With AEGYRLFDRKS [RD-045], in the assay on PCT [1], the “activity … 3 min” value was found to be 2398 and the “activity … 6 min” value came to 2087.

The values above are taken from EP4700040A1, “PEPTIDE AND LUMINESCENT COMPLEX CONTAINING SAME” (Shenzhen Loggene Life Science & Technology Co., Ltd., priority 2023, dated 2024).
